Values quoted from earlier work as cited in paper PMC5669518 (Biochemistry and Biophysics Reports, 2015).

Tested on: NEU2
Conditions: active form of oseltamivir; ref [16], [17]

CCOC(=O)C1=C[C@@H](OC(CC)CC)[C@H](NC(C)=O)[C@@H](N)C1 [oseltamivir]
Inhibitory effect on NEU2: does not exhibit the inhibitory effect
